Tests used:
Mayo 39 neurospheres = assay: Sorafenib and DHODHi combination, SynergyFinder; assay type: cell-based, human; conditions: Mayo 39 GBMs
Mayo 6 neurospheres = assay: Sorafenib and DHODHi combination, SynergyFinder
[1] = system: EGFRviii expressing 08-387 and 913 glioblastoma cells; assay: Gemcitabine sensitization assay (Alamar blue); assay type: cell-based, human; conditions: varying dosages of gemcitabine and 0.05 nM of compound 1
Method: Ten thousand 08-387 or 913 glioblastoma cells per well were seeded in a 96 well plate. […] Post 72 hr of treatment, cell viability was calculated on Alamar blue absorbance reading.
To further evaluate the potential role of EGFR in compound 1 resistance, the 913 and 08-387 neurosphere lines were transduced with lentiviruses encoding EGFRvIll or GFP (as control) and these neurospheres were challenged with a relatively high dose of 1 mM compound 1.

Mayo 6 = assay: Approved Oncology Drugs Set screen alone and combined with DHODHi; conditions: for Alone (growth, drug alone): Mayo 6, drug alone; for Combination (growth, drug combined with DHODHi): Mayo 6, drug combined with DHODHi (10 μM)
Method: To identify potential small molecules that can synergize with DHODHi, the Approved Oncology Drugs Set (NIH Developmental Therapeutics Program) was screened alone and combined with DHODHi (10 μM) against Mayo 6.

| SMILES | Alone (growth, drug alone) (Mayo 6) | Combination (growth, drug combined with DHODHi) (Mayo 6) | further results |
| --- | --- | --- | --- |
| CNC(=O)c1cc(Oc2ccc(NC(=O)Nc3ccc(Cl)c(C(F)(F)F)c3)cc2)ccn1 [Sorafenib] | – | – | sensitization to DHODHi by Sorafenib (Mayo 39 neurospheres): moderately sensitized; most synergistic area score (Mayo 6 neurospheres; Mayo 6, Sorafenib in combination with DHODHi): 10.48; sensitization to DHODHi by Sorafenib (Mayo 6 neurospheres; Mayo 6 GBMs, SynergyFinder): moderately sensitized |
| Nc1ccn([C@@H]2O[C@H](CO)[C@@H](O)C2(F)F)c(=O)n1 [gemcitabine, reference compound] | – | – | sensitivity of glioblastomas to gemcitabine [1]: sensitive |
| CNC(=O)c1cc(Oc2ccc(NC(=O)Nc3ccc(Cl)c(C(F)(F)F)c3)c(F)c2)ccn1 [Regorafenib, regorafenib] | 1.00 | 0.64 | – |
| C=CC(=O)Nc1cc(Nc2nccc(-c3cn(C)c4ccccc34)n2)c(OC)cc1N(C)CCN(C)C [Osimertinib, osimertinib] | 0.35 | 0.0001 | – |
